Laboratory results taken from paper PMC3605511, “Tumor P-Glycoprotein Correlates with Efficacy of PF-3758309 in in vitro and in vivo Models of Colorectal Cancer” (Frontiers in Pharmacology, 2013).

How the values were obtained:
DLD1 Scr = test: Proliferation, control shRNA, DLD1 Scr; type: cell-based; settings: Homo sapiens, DLD-1; DLD1 Scr:50, control shRNA
Method: Cytotoxic/proliferation effects were determined using the sulforhodamine B (SRB) assay (Skehan et al., [1990]) or by resazurin. Briefly, cells in logarithmic growth phase were transferred to 96 well flat bottom plates with lids. One-hundred microliter cell suspensions containing 1500–5000 viable cells were plated into each well and incubated overnight prior to exposure with increasing concentrations of PF-309 for 3–5 days, dependent upon cell type. Media was removed and cells were fixed with cold 10% trichloroacetic acid for 30 min at 4°C. Cells were then washed with water and stained with 0.4% SRB (Fisher Sci., Pittsburgh, PA, USA) for 30 min at room temperature, washed again with 1% acetic acid, followed by stain solubilization with 10 mM tris at room temperature. The plate was then read on a plate reader (Biotek Synergy 2, Winooski, VT, USA) set at an absorbance wavelength of 565 nm. Cell proliferation curves were derived from the raw absorbance (OD) data.
The pGIPZ Pgp-specific shRNA expression cassettes, along with control shRNA plasmids including the original pGIPZ vector were purchased from Open Biosystems (Birmingham, AL, USA). […] Successful knockdown of specific genes and gene products was confirmed by semi-quantitative RT-PCR and immunoblotting with specific antibodies. […]

GEO cell line xenograft = test: CRC cell line xenograft efficacy, GEO; type: in vivo, mice; settings: 25 mg/kg orally twice daily, 14–28 days, end of study tumor volumes
Method: For cell line xenografts, CRC cells were harvested in exponential phase growth and resuspended in a 1:1 mixture of serum-free RPMI 1640 and Matrigel (BD Biosciences). Five to ten million cells per mouse were injected subcutaneously into the flank using a 23-gauge needle. Mice were monitored daily for signs of toxicity and were weighed twice weekly. Tumor size was evaluated twice per week by caliper measurements using the following formula: tumor volume = length × width^2 × 0.52. When tumors reached 200–300 mm^3 mice were randomized into two groups with at least 10 tumors per group. Mice were then treated for 14–28 days (until control tumor volume reach ∼1500 mm^3) with either vehicle control (0.5% methylcellulose), or PF-3758309 (25 mg/kg) twice daily by oral gavage.
Human tumor xenograft models were used to evaluate the efficacy of PF-309 in vivo. Eleven different CRC cell line tumor xenografts were treated with 25 mg/kg PF-309 twice daily by oral gavage for 14–28 days (until control tumor volumes reached ∼1500 mm^3). Tumor volumes were measured throughout the study and the % growth inhibition was calculated from the average end of study tumor volumes by:
% Growth Inhibition= (average control volume−average treated volume)/average control volume×100%

[1] = Tumor concentration 6 h after a single dose, P-gp tumor concentration study; type: in vivo, mice; settings: single dose 25 mg/kg, 6 h post treatment; SW480 and HCT15 vs GEO and HCT116 xenografts
Method: Plasma and tumor samples were collected 1 h post treatment at the end of therapeutic studies or 6 h post treatment for P-gp tumor concentration studies. PF-309 was measured in mouse plasma and tumor tissue using a validated LC/MS/MS assay carried out by the University of Colorado Cancer Center Pharmacology Shared Resource. Positive ion electrospray ionization (ESI) mass spectra were obtained with a 3200 QTrap triple quadrupole mass spectrometer (Applied Biosystems Inc., Foster City, CA, USA) with a turboionspray source interfaced to an Agilent 1200 Series binary HPLC system (Agilent Technologies Inc., Santa Clara, CA, USA), and a HTC-PAL auto-sampler (LEAP Technologies, Carrboro, NC, USA). […]
Finally, we determined if the presence of P-gp affects tumor concentration. We evaluated the tumor concentration in two tumor xenograft lines with high ABCB1 gene expression (SW480 and HCT15) and two tumor xenografts with low ABCB1 gene expression (GEO and HCT116). Tumors from animals treated with a single dose of 25 mg/kg PF-309 were collected 6 h post treatment and concentrations analyzed. […] Tumors were also analyzed by western blot to confirm the presence or absence of P-gp, which agreed with the gene expression data (Figure 7B).

Compound: Cc1nc(Nc2n[nH]c3c2CN(C(=O)N[C@H](CN(C)C)c2ccccc2)C3(C)C)c2sccc2n1 [PF-309]
- IC50 (DLD1 Scr): 103 nM
- % Growth inhibition (GEO cell line xenograft): 42%
- tumor concentration, high tumor P-gp vs low ABCB1 expression [1]: ∼four fold lower
